Here are results for 16 molecules from US20210070748A1, “INHIBITORS OF BRUTONS TYROSINE KINASE” (Pharmacyclics LLC, priority 2015, published 2021).

Assay type in all cases: biochemical
One assay has as its target LCK (Homo sapiens, UniProt P06239). As to the kind of experiment: Inhibition of a panel of kinases, in vitro HotSpot kinase assay: LCK. The note with it: read-out: IC50 LCK.
A further assay addresses T1, JAK3 (Homo sapiens, UniProt P52333).
T1 sequence (P52333 1-1124): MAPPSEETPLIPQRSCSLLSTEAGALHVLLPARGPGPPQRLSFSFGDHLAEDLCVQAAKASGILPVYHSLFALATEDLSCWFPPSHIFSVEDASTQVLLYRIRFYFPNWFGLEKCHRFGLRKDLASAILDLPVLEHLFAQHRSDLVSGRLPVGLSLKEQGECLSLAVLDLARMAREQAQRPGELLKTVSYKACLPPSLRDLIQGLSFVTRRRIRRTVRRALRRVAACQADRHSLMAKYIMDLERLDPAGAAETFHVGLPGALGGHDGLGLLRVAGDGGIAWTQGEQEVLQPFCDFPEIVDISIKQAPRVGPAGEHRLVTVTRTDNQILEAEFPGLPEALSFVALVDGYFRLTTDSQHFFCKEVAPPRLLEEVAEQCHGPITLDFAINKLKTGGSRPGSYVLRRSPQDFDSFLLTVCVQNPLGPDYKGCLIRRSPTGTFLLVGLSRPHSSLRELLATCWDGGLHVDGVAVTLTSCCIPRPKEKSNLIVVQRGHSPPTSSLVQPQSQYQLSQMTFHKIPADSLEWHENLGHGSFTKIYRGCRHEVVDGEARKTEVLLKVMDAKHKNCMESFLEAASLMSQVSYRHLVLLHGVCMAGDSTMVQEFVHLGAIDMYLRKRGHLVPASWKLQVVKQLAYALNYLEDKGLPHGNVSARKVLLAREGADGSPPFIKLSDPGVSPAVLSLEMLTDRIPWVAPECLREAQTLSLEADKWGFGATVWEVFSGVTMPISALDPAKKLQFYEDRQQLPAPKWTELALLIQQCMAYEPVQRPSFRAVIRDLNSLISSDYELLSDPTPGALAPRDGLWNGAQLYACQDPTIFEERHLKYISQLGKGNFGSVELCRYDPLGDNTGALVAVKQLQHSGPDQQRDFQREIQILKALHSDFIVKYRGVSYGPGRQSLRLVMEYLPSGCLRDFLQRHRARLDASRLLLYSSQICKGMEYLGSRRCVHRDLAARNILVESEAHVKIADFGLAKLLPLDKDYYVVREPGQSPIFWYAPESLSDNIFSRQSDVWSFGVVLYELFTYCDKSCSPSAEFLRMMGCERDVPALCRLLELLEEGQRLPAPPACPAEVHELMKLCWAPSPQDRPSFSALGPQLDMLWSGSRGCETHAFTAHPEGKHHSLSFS
As to the kind of experiment: Inhibition of a panel of kinases, in vitro HotSpot kinase assay: JAK3. The settings on record: read-out: IC50 JAK3.

The target of the next assay is T2, BTK-WT (Homo sapiens, UniProt Q06187).
T2 construct: purified from insect cells as a full-length construct containing an N-terminal 6X-His tag; His6 (N); made in house; host or cells: insect cells (baculovirus Sf21 in Method B)
Nature of the assay: Btk in vitro inhibitory activity (one of Method A TR-FRET, Method B electrophoretic mobility shift, Method C radiometric filter binding). The settings on record: read-out: IC50 BTK-WT.

For the next assay, the target named is EGFR (Homo sapiens, UniProt P00533). Nature of the assay: Inhibition of a panel of kinases, in vitro HotSpot kinase assay: EGFR. The protocol:
The degree of inhibition of a panel of kinases is determined using the in vitro HotSpot kinase assay (purified enzymes, ^33P-ATP, an appropriate substrate and 1 μM ATP).

[1] abbreviates: D-compounds panel data, 1 μM ATP.

Structures are written as SMILES. Where two headings read alike, the source gives them in different places.

T2 sequence (Q06187 whole entry): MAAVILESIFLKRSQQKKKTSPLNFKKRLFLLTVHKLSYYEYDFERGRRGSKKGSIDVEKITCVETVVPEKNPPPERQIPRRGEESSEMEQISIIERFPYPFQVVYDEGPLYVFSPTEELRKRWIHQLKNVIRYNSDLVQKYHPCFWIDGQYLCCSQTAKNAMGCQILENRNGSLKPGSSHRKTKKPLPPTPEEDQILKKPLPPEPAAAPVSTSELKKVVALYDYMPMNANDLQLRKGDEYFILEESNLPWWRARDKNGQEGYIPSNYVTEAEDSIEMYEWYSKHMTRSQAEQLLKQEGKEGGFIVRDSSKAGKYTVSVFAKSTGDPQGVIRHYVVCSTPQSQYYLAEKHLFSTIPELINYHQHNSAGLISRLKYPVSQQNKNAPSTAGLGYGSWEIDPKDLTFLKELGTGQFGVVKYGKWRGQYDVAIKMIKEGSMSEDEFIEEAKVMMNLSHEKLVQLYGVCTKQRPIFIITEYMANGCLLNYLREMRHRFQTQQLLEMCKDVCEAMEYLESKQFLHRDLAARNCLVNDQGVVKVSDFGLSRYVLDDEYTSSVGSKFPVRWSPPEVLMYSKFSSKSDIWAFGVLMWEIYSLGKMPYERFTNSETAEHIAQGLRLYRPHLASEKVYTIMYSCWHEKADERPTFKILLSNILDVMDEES
Sequence of LCK (P06239 whole entry): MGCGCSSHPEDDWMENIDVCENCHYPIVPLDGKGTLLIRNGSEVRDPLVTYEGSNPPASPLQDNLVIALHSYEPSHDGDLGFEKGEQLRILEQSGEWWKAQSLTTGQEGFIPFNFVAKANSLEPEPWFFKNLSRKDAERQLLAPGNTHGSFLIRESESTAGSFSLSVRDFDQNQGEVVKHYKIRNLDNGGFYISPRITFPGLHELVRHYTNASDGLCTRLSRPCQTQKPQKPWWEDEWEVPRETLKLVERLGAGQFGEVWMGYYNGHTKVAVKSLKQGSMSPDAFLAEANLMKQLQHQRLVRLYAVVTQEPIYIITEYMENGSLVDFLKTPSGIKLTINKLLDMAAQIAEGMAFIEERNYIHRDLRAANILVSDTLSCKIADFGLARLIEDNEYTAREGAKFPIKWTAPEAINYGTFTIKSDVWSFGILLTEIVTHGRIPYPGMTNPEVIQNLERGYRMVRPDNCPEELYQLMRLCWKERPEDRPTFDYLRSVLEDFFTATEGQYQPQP
Sequence of EGFR (P00533 25-1210): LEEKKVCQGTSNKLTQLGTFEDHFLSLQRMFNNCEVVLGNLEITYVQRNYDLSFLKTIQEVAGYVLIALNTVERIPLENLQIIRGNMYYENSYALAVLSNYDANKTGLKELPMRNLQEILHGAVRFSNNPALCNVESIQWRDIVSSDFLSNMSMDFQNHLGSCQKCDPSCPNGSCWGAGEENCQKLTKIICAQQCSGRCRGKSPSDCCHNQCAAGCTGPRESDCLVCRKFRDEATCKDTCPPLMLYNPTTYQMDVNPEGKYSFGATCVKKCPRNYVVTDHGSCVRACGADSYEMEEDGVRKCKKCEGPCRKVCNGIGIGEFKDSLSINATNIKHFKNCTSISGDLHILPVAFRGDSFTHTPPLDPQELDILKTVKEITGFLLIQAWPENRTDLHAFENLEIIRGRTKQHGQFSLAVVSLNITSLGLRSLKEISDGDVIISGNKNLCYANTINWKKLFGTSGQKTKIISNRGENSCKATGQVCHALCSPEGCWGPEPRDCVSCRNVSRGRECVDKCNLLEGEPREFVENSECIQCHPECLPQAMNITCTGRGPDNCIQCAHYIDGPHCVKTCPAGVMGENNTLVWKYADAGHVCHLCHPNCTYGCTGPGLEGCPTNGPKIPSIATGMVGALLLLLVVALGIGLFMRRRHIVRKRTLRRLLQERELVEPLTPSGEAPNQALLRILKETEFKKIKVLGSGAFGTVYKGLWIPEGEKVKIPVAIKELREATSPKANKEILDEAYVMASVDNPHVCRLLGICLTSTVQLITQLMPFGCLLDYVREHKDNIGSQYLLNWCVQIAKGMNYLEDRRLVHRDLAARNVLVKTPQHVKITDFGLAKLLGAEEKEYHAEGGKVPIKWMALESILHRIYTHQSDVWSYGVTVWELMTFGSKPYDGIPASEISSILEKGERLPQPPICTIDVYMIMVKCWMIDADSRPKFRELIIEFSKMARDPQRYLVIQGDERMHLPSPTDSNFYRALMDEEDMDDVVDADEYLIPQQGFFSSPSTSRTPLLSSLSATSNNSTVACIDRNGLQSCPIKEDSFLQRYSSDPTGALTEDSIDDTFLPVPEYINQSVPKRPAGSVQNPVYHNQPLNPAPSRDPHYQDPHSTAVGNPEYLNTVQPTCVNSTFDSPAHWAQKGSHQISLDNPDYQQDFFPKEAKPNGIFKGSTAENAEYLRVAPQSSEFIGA

Take `Cc1cc(Nc2nc(N3C[C@@H](NC(=O)c4ccc(C5CC5)cc4F)CC[C@H]3C)cnc2C(N)=O)sn1` [Example D-80, 5-[(2R,5S)-5-(4-cyclopropyl-2-fluorobenzamido)-2-methylpiperidin-1-yl]-3-[(3-methyl-1,2-thiazol-5-yl)amino]pyrazine-2-carboxamide]: the IC50 was in the range of 100 to 1000 nM at LCK (setting [1]), 1000 to 10000 nM on JAK3 (setting [1]), 10 to 100 nM at BTK-WT (D-compounds panel data) and 100 to 1000 nM against EGFR (setting [1]).

For the molecule `C=CC(=O)N1CC[C@@H](N(C)c2cnc(C(N)=O)c(Nc3ccc(C4(C)CCN(C5CCCC5)CC4)cc3)n2)C1` [Example E-106, (R)-5-((1-acryloylpyrrolidin-3-yl)(methyl)amino)-3-(4-(1-cyclopentyl-4-methylpiperidin-4-yl)phenylamino)pyrazine-2-carboxamide], the IC50 is 10 to 100 nM at LCK (E compounds, Table 17); < 10 nM on JAK3 (E compounds, Table 17); ≤ 10 nM at BTK-WT (E compounds, Table 17); ≤ 10 nM at EGFR (E compounds, Table 17).

`C[C@@H]1[C@H](NC(=O)c2ccc(C3CC3)cc2)CCCN1c1cnc(C(N)=O)c(Nc2ccc3nccn3c2)n1` [Example D-83, 5-[(2R,3R)-3-(4-cyclopropylbenzamido)-2-methylpiperidin-1-yl]-3-({imidazo[1,2-a]pyridin-6-yl}amino)pyrazine-2-carboxamide]: the IC50 on LCK (setting [1]) is 1000 to 10000 nM; at JAK3 (setting [1]), 1000 to 10000 nM; at BTK-WT (D-compounds panel data), 10 to 100 nM; against EGFR (setting [1]), > 10000 nM.

Regarding `CN(C)C(=O)N[C@@H]1CCCN(c2cnc(C(N)=O)c(Nc3ccc(C4(C)CCN(C5CCCC5)CC4)cc3)n2)[C@@H]1CO` [Example D-58, 3-{[4-(1-cyclopentyl-4-methylpiperidin-4-yl)phenyl]amino}-5-[(2S,3R)-3-[(dimethylcarbamoyl)amino]-2-(hydroxymethyl)piperidin-1-yl]pyrazine-2-carboxamide], the IC50 was 100 to 1000 nM at LCK (setting [1]), 1000 to 10000 nM at JAK3 (setting [1]), ≤ 10 nM on BTK-WT (D-compounds panel data) and 100 to 1000 nM on EGFR (setting [1]).

On to `C[C@@H]1[C@H](N2CCN(C)C2=O)CCCN1c1cnc(C(N)=O)c(Nc2cnn(C)c2)n1` [Example D-93, 3-[(1-methyl-1H-pyrazol-4-yl)amino]-5-[(2R,3R)-2-methyl-3-(3-methyl-2-oxoimidazolidin-1-yl)piperidin-1-yl]pyrazine-2-carboxamide], for which the IC50 lay in the range of 100 to 1000 nM on LCK (setting [1]), 100 to 1000 nM at JAK3 (setting [1]), 10 to 100 nM at BTK-WT (D-compounds panel data) and 1000 to 10000 nM on EGFR (setting [1]).

For the molecule `C[C@@H]1C[C@H](NC(=O)c2ccc(C3CC3)cc2)CN(c2cnc(C(N)=O)c(Nc3cnn(C)c3)n2)C1` [Example D-32, 5-[(3S,5R)-3-(4-cyclopropylbenzamido)-5-methylpiperidin-1-yl]-3-[(1-methyl-1H-pyrazol-4-yl)amino]pyrazine-2-carboxamide], the IC50 at LCK (setting [1]) is 1000 to 10000 nM; at JAK3 (setting [1]), > 10000 nM; at BTK-WT (D-compounds panel data), 100 to 1000 nM; at EGFR (setting [1]), > 10000 nM.

As for `CN1CCN(C(=O)c2ccc(Nc3nc(N[C@H]4CC[C@@H](NC(=O)c5ccc(C6CC6)cc5F)CC4)cnc3C(N)=O)cc2)CC1` [Example D-71, 3-{[4-(4-methylpiperazine-1-carbonyl)phenyl]amino}-5-{[(1 s,4s)-4-(4-cyclopropyl-2-fluorobenzamido)cyclohexyl]amino}pyrazine-2-carboxamide], the IC50 at LCK (setting [1]) lay within 10 to 100 nM; at JAK3 (setting [1]), 10 to 100 nM; on BTK-WT (D-compounds panel data), 10 to 100 nM; against EGFR (setting [1]) it was 100 to 1000 nM.

For the molecule `C=CC(=O)N1CCC[C@@H](Nc2cnc(C(N)=O)c(Nc3ccc(C4CCN(C5CCCC5)CC4)cc3)n2)C1` [Example E-108, (R)-5-(1-acryloylpiperidin-3-ylamino)-3-(4-(1-cyclopentylpiperidin-4-yl)phenylamino)pyrazine-2-carboxamide], the half-maximal inhibitory concentration (IC50) at LCK (E compounds, Table 17) is 10 to 100 nM; at JAK3 (E compounds, Table 17), < 10 nM; at BTK-WT (E compounds, Table 17), ≤ 10 nM; against EGFR (E compounds, Table 17), ≤ 10 nM.

With `C[C@@H]1[C@H](NC(=O)c2ccc(C3CC3)cc2)CCCN1c1cnc(C(N)=O)c(Nc2cnc(N3CCN(C)CC3)nc2)n1` [Example D-318, 5-[(2R,3R)-3-(4-cyclopropylbenzamido)-2-methylpiperidin-1-yl]-3-{[2-(4-methylpiperazin-1-yl)pyrimidin-5-yl]amino}pyrazine-2-carboxamide], the 50% inhibitory concentration (IC50) on LCK (setting [1]) was 100 to 1000 nM; at JAK3 (setting [1]), > 10000 nM; on BTK-WT (D-compounds panel data), ≤ 10 nM; at EGFR (setting [1]), > 10000 nM.

As to `Cc1cc(Nc2nc(N3CCC[C@@H](NC(=O)c4ccc(C5CC5)cc4F)C3)cnc2C(N)=O)on1` [Example D-2, 5-[(3R)-3-(4-cyclopropyl-2-fluorobenzamido)piperidin-1-yl]-3-[(3-methyl-1,2-oxazol-5-yl)amino]pyrazine-2-carboxamide], the 50% inhibitory concentration (IC50) was > 10000 nM on LCK (setting [1]), 1000 to 10000 nM at JAK3 (setting [1]), 100 to 1000 nM on BTK-WT (D-compounds panel data) and > 10000 nM against EGFR (setting [1]).

With `C[C@@H]1[C@H](N2Cc3cc(C4CC4)ccc3C2=O)CCCN1c1cnc(C(N)=O)c(Nc2cnn(C)c2)n1` [Example D-36, 5-[(2R,3R)-3-(5-cyclopropyl-1-oxo-2,3-dihydro-1H-isoindol-2-yl)-2-methylpiperidin-1-yl]-3-[(1-methyl-1H-pyrazol-4-yl)amino]pyrazine-2-carboxamide], the IC50 at LCK (setting [1]) was 100 to 1000 nM; at JAK3 (setting [1]), 100 to 1000 nM; at BTK-WT (D-compounds panel data) it was ≤ 10 nM; against EGFR (setting [1]), 100 to 1000 nM.

Take `Cc1cc(Nc2nc(N3CCC[C@@H](NC(=O)N(C)C)[C@H]3CO)cnc2C(N)=O)sn1` [Example D-67, 5-[(2S,3R)-3-[(dimethylcarbamoyl)amino]-2-(hydroxymethyl)piperidin-1-yl]-3-[(3-methyl-1,2-thiazol-5-yl)amino]pyrazine-2-carboxamide]: the IC50 on LCK (setting [1]) is 100 to 1000 nM; on JAK3 (setting [1]), 1000 to 10000 nM; on BTK-WT (D-compounds panel data), 10 to 100 nM; against EGFR (setting [1]), 100 to 1000 nM.

Turning to `C[C@H]1C[C@H](NC(=O)c2ccc(C3CC3)cc2)CN(c2cnc(C(N)=O)c(Nc3cnn(C)c3)n2)C1` [Example D-34, 5-[(3S,5S)-3-(4-cyclopropylbenzamido)-5-methylpiperidin-1-yl]-3-[(1-methyl-1H-pyrazol-4-yl)amino]pyrazine-2-carboxamide], the IC50 at LCK (setting [1]) is > 10000 nM; on JAK3 (setting [1]), > 10000 nM; at BTK-WT (D-compounds panel data) it was 1000 to 10000 nM; at EGFR (setting [1]), > 10000 nM.

Consider `CC1COc2cc(C(=O)N[C@@H]3CCCN(c4cnc(C(N)=O)c(Nc5cnn(C)c5)n4)[C@@H]3C)ccc2C1` (stereo partly drawn) [Example D-56, 3-[(1-methyl-1H-pyrazol-4-yl)amino]-5-[(2R,3R)-2-methyl-3-(3-methyl-3,4-dihydro-2H-1-benzopyran-7-amido)piperidin-1-yl]pyrazine-2-carboxamide], for which the IC50 on LCK (setting [1]) is 10 to 100 nM; at JAK3 (setting [1]), > 10000 nM; at BTK-WT (D-compounds panel data), ≤ 10 nM; against EGFR (setting [1]) it was 100 to 1000 nM.

With `C[C@@H]1[C@H](NC(=O)c2ccc(C3CC3)cc2)CCCN1c1cnc(C(N)=O)c(Nc2ccc(OC3CCN(C)CC3)cc2)n1` [Example D-89], the IC50 on LCK (setting [1]) was 10 to 100 nM; on JAK3 (setting [1]), 100 to 1000 nM; on BTK-WT (D-compounds panel data), ≤ 10 nM; against EGFR (setting [1]) it was 100 to 1000 nM.

As for `Cc1cc(Nc2nc(N3C[C@@H](NC(=O)c4ccc(C5CC5)cc4F)CC[C@@H]3C)cnc2C(N)=O)sn1` [Example D-78, 5-[(2S,5S)-5-(4-cyclopropyl-2-fluorobenzamido)-2-methylpiperidin-1-yl]-3-[(3-methyl-1,2-thiazol-5-yl)amino]pyrazine-2-carboxamide], the IC50 lay within 100 to 1000 nM on LCK (setting [1]), 1000 to 10000 nM on JAK3 (setting [1]), 100 to 1000 nM on BTK-WT (D-compounds panel data) and 100 to 1000 nM against EGFR (setting [1]).

What is called IC50 is the midpoint of a concentration-inhibition curve.
